According to patent US20240343729A1 (priority 2021, published 2024):

Key:
Human PDE10A2 [1] = target: T1, Human PDE10A2 (Homo sapiens (Human), UniProt Q9Y233); experiment: cell-based; details: Forskolin 10 μM; read-out: cAMP HTRF Assay in HEK 293 rhPDE10A2 cell line (pIC50) (converted)
Protocol: Semi log compound dilutions starting at a final concentration of 10 μM were dispensed into a white 384 well plate, alongside DMSO and an Inhibited control using the Tecan D300e digital dispenser. HEK 293 cells overexpressing recombinant human PDE10A2 were seeded on top of the compounds at 2500 cells/well in a volume 5 μL/well. The plate was incubated at room temperature for 60 minutes. To induce endogenous cAMP, 5 μL/well of Forskolin at a final assay concentration of 10 μM was added to the plate. The plate was incubated at room temperature for a further 45 minutes. cAMP HTRF detection reagents were added, and the plate was incubated for 60 minutes at room temperature. […] Data was analysed using a 4-parameter fit.

Human PDE10A2 [2] = target: T1, Human PDE10A2; experiment: biochemical; type: biochemical; details: human PDE10A2 0.25 nM, cGMP 3 μM
Protocol: Semi Log compound dilutions starting at a final concentration of 50 μM were dispensed into a black 384 well plate alongside, DMSO and an Inhibited control using the Echo Acoustic dispenser. […] Data was analysed using a 4-parameter fit.

T1 sequence (Q9Y233 267-1055): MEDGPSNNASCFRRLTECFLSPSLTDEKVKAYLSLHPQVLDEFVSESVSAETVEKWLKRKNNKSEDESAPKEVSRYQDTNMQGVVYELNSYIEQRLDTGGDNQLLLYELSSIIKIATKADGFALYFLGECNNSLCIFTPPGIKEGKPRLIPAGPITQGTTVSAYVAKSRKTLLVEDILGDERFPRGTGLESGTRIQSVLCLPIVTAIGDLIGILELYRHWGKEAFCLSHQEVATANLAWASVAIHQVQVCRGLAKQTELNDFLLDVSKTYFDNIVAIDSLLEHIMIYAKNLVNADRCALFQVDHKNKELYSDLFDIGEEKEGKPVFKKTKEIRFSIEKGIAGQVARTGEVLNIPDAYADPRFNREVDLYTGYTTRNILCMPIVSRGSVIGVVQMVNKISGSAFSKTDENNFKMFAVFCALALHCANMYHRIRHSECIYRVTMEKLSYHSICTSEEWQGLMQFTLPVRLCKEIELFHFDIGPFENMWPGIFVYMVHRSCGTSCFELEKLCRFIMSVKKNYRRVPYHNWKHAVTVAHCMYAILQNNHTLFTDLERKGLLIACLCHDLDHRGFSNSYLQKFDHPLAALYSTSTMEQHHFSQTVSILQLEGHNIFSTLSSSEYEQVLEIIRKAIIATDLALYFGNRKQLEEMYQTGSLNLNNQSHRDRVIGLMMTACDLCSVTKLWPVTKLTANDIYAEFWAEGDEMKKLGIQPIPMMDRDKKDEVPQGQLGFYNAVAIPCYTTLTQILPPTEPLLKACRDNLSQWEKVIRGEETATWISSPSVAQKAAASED

## Cn1cc(-c2ccccc2)nc1C#Cc1nc(N2CC3(COC3)C2)c2cnn(C3CCOCC3)c2n1 [Example 6, 6-[6-[2-(1-Methyl-4-phenyl-imidazol-2-yl)ethynyl]-1-tetrahydropyran-4-yl-pyrazolo[3,4-d]pyrimidin-4-yl]-2-oxa-6-azaspiro[3.3]heptane]
Human PDE10A2 [1]
  IC50: 14.8 nM
Human PDE10A2 [2]
  PDE10A2 Phosphate Sensor Enzyme Assay (pIC50): 9.20

## CC(C)n1ncc2c(N3C[C@H]4COC[C@H]4C3)nc(C#Cc3nc(-c4ccccc4)c[nH]3)nc21 [Example 25, (3aR,6aS)-5-(1-isoPropyl-6-((4-phenyl-1H-imidazol-2-yl)ethynyl)-1H-pyrazolo[3,4-d]pyrimidin-4-yl)hexahydro-1H-furo[3,4-c]pyrrole]
Human PDE10A2 [2]
  PDE10A2 Phosphate Sensor Enzyme Assay (pIC50): 9.95

## Cn1cc(-c2ccccc2)nc1C#Cc1nc(N2CC3(COC3)C2)c2cnn(C)c2n1 [Example 3, 6-[1-Methyl-6-[2-(1-methyl-4-phenyl-imidazol-2-yl)ethynyl]pyrazolo[3,4-d]pyrimidin-4-yl]-2-oxa-6-azaspiro[3.3]heptane]
Human PDE10A2 [1]
  IC50: 0.275 nM
Human PDE10A2 [2]
  PDE10A2 Phosphate Sensor Enzyme Assay (pIC50): 9.99

## Cn1cc(-c2ccccc2)nc1C#Cc1nc(N2C[C@H]3COC[C@H]3C2)c2cnn(C)c2n1 [Example 23, (3aR,6aS)-5-(1-Methyl-6-((1-methyl-4-phenyl-1H-imidazol-2-yl)ethynyl)-1H-pyrazolo[3,4-d]pyrimidin-4-yl)hexahydro-1H-furo[3,4-c]pyrrole]
Human PDE10A2 [1]
  IC50: 0.245 nM
Human PDE10A2 [2]
  PDE10A2 Phosphate Sensor Enzyme Assay (pIC50): 10.40

## C[C@H]1COCCN1c1nc(C#Cc2nc(-c3cccnc3)c[nH]2)nc2c1ncn2C [Example 33, (S)-3-Methyl-4-(9-methyl-2-((4-(pyridin-3-yl)-1H-imidazol-2-yl)ethynyl)-9H-purin-6-yl)morpholine]
Human PDE10A2 [1]
  IC50: 17.4 nM
Human PDE10A2 [2]
  PDE10A2 Phosphate Sensor Enzyme Assay (pIC50): 8.68

## Cn1cc(-c2ccccc2)nc1C#Cc1nc(N2C[C@H]3COC[C@H]3C2)c2ncn(C)c2n1 [Example 20, (3aR,6aS)-5-(9-Methyl-2-((1-methyl-4-phenyl-1H-imidazol-2-yl)ethynyl)-9H-purin-6-yl)hexahydro-1H-furo[3,4-c]pyrrole]
Human PDE10A2 [1]
  IC50: 8.71 nM
Human PDE10A2 [2]
  PDE10A2 Phosphate Sensor Enzyme Assay (pIC50): 9.53

## CN(C)CCOc1cccc(-c2c[nH]c(C#Cc3nc(N4C[C@H]5COC[C@H]5C4)c4cnn(C)c4n3)n2)c1 [Example 10, 2-[3-[2-[2-[4-[(3aS,6aR)-1,3,3a,4,6,6a-Hexahydrofuro[3,4-c]pyrrol-5-yl]-1-methyl-pyrazolo[3,4-d]pyrimidin-6-yl]ethynyl]-1H-imidazol-4-yl]phenoxy]-N,N-dimethyl-ethanamine]
Human PDE10A2 [1]
  IC50: 0.661 nM
Human PDE10A2 [2]
  PDE10A2 Phosphate Sensor Enzyme Assay (pIC50): 10.4

## Cn1cc(-c2ccccc2)nc1C#Cc1nc2c(c(N3CCOCC3)n1)CCNC2 [Example 11, 4-[2-[2-(1-Methyl-4-phenyl-imidazol-2-yl)ethynyl]-5,6,7,8-tetrahydropyrido[3,4-d]pyrimidin-4-yl]morpholine]
Human PDE10A2 [1]
  IC50: 1.86 nM
Human PDE10A2 [2]
  PDE10A2 Phosphate Sensor Enzyme Assay (pIC50): 9.80

## Cn1cnc2c(N3C[C@H]4COC[C@H]4C3)nc(C#Cc3nc(-c4ccccc4)c[nH]3)nc21 [Example 28, (3aR,6aS)-5-(9-Methyl-2-((4-phenyl-1H-imidazol-2-yl)ethynyl)-9H-purin-6-yl)hexahydro-1H-furo[3,4-c]pyrrole]
Human PDE10A2 [1]
  IC50: 33.9 nM
Human PDE10A2 [2]
  PDE10A2 Phosphate Sensor Enzyme Assay (pIC50): 9.34

## C[C@H]1COCCN1c1nc(C#Cc2nc(-c3ccccc3)c[nH]2)nc2c1ncn2C [Example 30, (S)-3-Methyl-4-(9-methyl-2-((4-phenyl-1H-imidazol-2-yl)ethynyl)-9H-purin-6-yl)morpholine]
Human PDE10A2 [1]
  IC50: > 1000 nM
Human PDE10A2 [2]
  PDE10A2 Phosphate Sensor Enzyme Assay (pIC50): 8.97

## Cn1cc(-c2ccccc2)nc1C#Cc1nc(N2CC3(COC3)C2)c2ncn(C)c2n1 [Example 1, 6-[9-Methyl-2-[2-(1-methyl-4-phenyl-imidazol-2-yl)ethynyl]purin-6-yl]-2-oxa-6-azaspiro[3.3]heptane]
Human PDE10A2 [1]
  IC50: 1.17 nM
Human PDE10A2 [2]
  PDE10A2 Phosphate Sensor Enzyme Assay (pIC50): 9.26

## C[C@H]1COCCN1c1nc(C#Cc2nc(-c3ccccc3)cn2C)nc2c1CCNC2 [Example 13, (3S)-3-Methyl-4-[2-[2-(1-methyl-4-phenyl-imidazol-2-yl)ethynyl]-5,6,7,8-tetrahydropyrido[3,4-d]pyrimidin-4-yl]morpholine]
Human PDE10A2 [1]
  IC50: > 1000 nM
Human PDE10A2 [2]
  PDE10A2 Phosphate Sensor Enzyme Assay (pIC50): 8.92

## C[C@@H]1COCCN1c1nc(C#Cc2nc(-c3ccccc3)cn2C)nc2c1ncn2C [Example 21, (R)-3-Methyl-4-(9-methyl-2-((1-methyl-4-phenyl-1H-imidazol-2-yl)ethynyl)-9H-purin-6-yl)morpholine]
Human PDE10A2 [1]
  IC50: 0.417 nM
Human PDE10A2 [2]
  PDE10A2 Phosphate Sensor Enzyme Assay (pIC50): 10.30

## C[C@@H]1COCCN1c1nc(C#Cc2nc(-c3cccnc3)c[nH]2)nc2c1ncn2C [Example 32, (R)-3-Methyl-4-(9-methyl-2-((4-(pyridin-3-yl)-1H-imidazol-2-yl)ethynyl)-9H-purin-6-yl)morpholine]
Human PDE10A2 [1]
  IC50: 2.34 nM
Human PDE10A2 [2]
  PDE10A2 Phosphate Sensor Enzyme Assay (pIC50): 9.90

## Cn1cc(-c2ccccc2)nc1C#Cc1nc(N2C[C@H]3COC[C@H]3C2)c2cnn(C3COC3)c2n1 [Example 19, (3aR,6aS)-5-(6-((1-Methyl-4-phenyl-1H-imidazol-2-yl)ethynyl)-1-(oxetan-3-yl)-1H-pyrazolo[3,4-d]pyrimidin-4-yl)hexahydro-1H-furo[3,4-c]pyrrole]
Human PDE10A2 [1]
  IC50: 11.2 nM
Human PDE10A2 [2]
  PDE10A2 Phosphate Sensor Enzyme Assay (pIC50): 9.41

## C[C@@H]1COCCN1c1nc(C#Cc2nc(-c3ccccc3)cn2C)nc2c1CCNC2 [Example 12, (3R)-3-Methyl-4-[2-[2-(1-methyl-4-phenyl-imidazol-2-yl)ethynyl]-5,6,7,8-tetrahydropyrido[3,4-d]pyrimidin-4-yl]morpholine]
Human PDE10A2 [1]
  IC50: 0.437 nM
Human PDE10A2 [2]
  PDE10A2 Phosphate Sensor Enzyme Assay (pIC50): 10.40

## Cn1cc(-c2ccccc2)nc1C#Cc1nc2c(c(N3CCOCC3)n1)CCN(C1COC1)C2 [Example 14, 4-[2-[2-(1-Methyl-4-phenyl-imidazol-2-yl)ethynyl]-7-(oxetan-3-yl)-6,8-dihydro-5H-pyrido[3,4-d]pyrimidin-4-yl]morpholine]
Human PDE10A2 [1]
  IC50: 1.78 nM
Human PDE10A2 [2]
  PDE10A2 Phosphate Sensor Enzyme Assay (pIC50): 9.35

## Cn1cnc2c(N3CC4(COC4)C3)nc(C#Cc3nc(-c4ccccc4)cn3CCN3CCOCC3)nc21 [Example 5, 6-[9-Methyl-2-[2-[1-(2-morpholinoethyl)-4-phenyl-imidazol-2-yl]ethynyl]purin-6-yl]-2-oxa-6-azaspiro[3.3]heptane]
Human PDE10A2 [1]
  IC50: 0.427 nM
Human PDE10A2 [2]
  PDE10A2 Phosphate Sensor Enzyme Assay (pIC50): 9.37

## C[C@@H]1COCCN1c1nc(C#Cc2nc(-c3ccccc3)c[nH]2)nc2c1ncn2C [Example 29, (R)-3-Methyl-4-(9-methyl-2-((4-phenyl-1H-imidazol-2-yl)ethynyl)-9H-purin-6-yl)morpholine]
Human PDE10A2 [1]
  IC50: 3.47 nM
Human PDE10A2 [2]
  PDE10A2 Phosphate Sensor Enzyme Assay (pIC50): 9.92

## Cn1cnc2c(N3CC4(COC4)C3)nc(C#Cc3nc(-c4ccccc4)cn3CC3CCOCC3)nc21 [Example 4, 6-[9-Methyl-2-[2-[4-phenyl-1-(tetrahydropyran-4-ylmethyl)imidazol-2-yl]ethynyl]purin-6-yl]-2-oxa-6-azaspiro[3.3]heptane]
Human PDE10A2 [1]
  IC50: 6.31 nM
Human PDE10A2 [2]
  PDE10A2 Phosphate Sensor Enzyme Assay (pIC50): 9.00

## Cn1cc(-c2ccccc2)nc1C#Cc1nc(N2CC3(COC3)C2)c2cnn(CC3CNC3)c2n1 [Example 8, 6-[1-(Azetidin-3-ylmethyl)-6-[2-(1-methyl-4-phenyl-imidazol-2-yl)ethynyl]pyrazolo[3,4-d]pyrimidin-4-yl]-2-oxa-6-azaspiro[3.3]heptane]
Human PDE10A2 [1]
  IC50: 5.75 nM
Human PDE10A2 [2]
  PDE10A2 Phosphate Sensor Enzyme Assay (pIC50): 8.45

## Cn1cc(-c2ccccc2)nc1C#Cc1nc(N2C[C@H]3COC[C@H]3C2)c2cnn(CC3CC3)c2n1 [Example 16, (3aR,6aS)-5-(1-(Cyclopropylmethyl)-6-((1-methyl-4-phenyl-1H-imidazol-2-yl)ethynyl)-1H-pyrazolo[3,4-d]pyrimidin-4-yl)hexahydro-1H-furo[3,4-c]pyrrole]
Human PDE10A2 [1]
  IC50: 4.17 nM
Human PDE10A2 [2]
  PDE10A2 Phosphate Sensor Enzyme Assay (pIC50): 10.10

## CCn1ncc2c(N3C[C@H]4COC[C@H]4C3)nc(C#Cc3nc(-c4ccccc4)cn3C)nc21 [Example 17, (3aR,6aS)-5-(1-Ethyl-6-((1-methyl-4-phenyl-1H-imidazol-2-yl)ethynyl)-1H-pyrazolo[3,4-d]pyrimidin-4-yl)hexahydro-1H-furo[3,4-c]pyrrole]
Human PDE10A2 [1]
  IC50: 0.331 nM
Human PDE10A2 [2]
  PDE10A2 Phosphate Sensor Enzyme Assay (pIC50): 10.50

## C[C@H]1COCCN1c1nc(C#Cc2nc(-c3ccccc3)cn2C)nc2c1ncn2C [Example 22, (S)-3-Methyl-4-(9-methyl-2-((1-methyl-4-phenyl-1H-imidazol-2-yl)ethynyl)-9H-purin-6-yl)morpholine]
Human PDE10A2 [2]
  PDE10A2 Phosphate Sensor Enzyme Assay (pIC50): 9.22

## C(#Cc1nc(-c2ccccc2)c[nH]1)c1nc(N2C[C@H]3COC[C@H]3C2)c2cnn(CC3CC3)c2n1 [Example 26, (3aR,6aS)-5-(1-(Cyclopropylmethyl)-6-((4-phenyl-1H-imidazol-2-yl)ethynyl)-1H-pyrazolo[3,4-d]pyrimidin-4-yl)hexahydro-1H-furo[3,4-c]pyrrole]
Human PDE10A2 [2]
  PDE10A2 Phosphate Sensor Enzyme Assay (pIC50): 9.99
